Values after ≈ are worked out from the molar mass of the structure shown. Like-named read-outs stand apart in the source and are kept apart here.
Assays:
Pseudomonas aeruginosa = assay: Combination of substances with perillic acid: reduction of the MIC of perillic acid; format: cell-based; conditions: test compound combined with perillic acid; experiments as in Example 1
Description: (§1) All experiments were done in 96-well plates in a final volume of 200 μL. Test solutions of the investigated compounds were prepared in 25 mM buffered water. The procedure was conducted as following: 4 μL of the particular stock solution were mixed with 196 μL culture medium containing a defined inoculum of the respective target strain. Sterile controls (not inoculated) and growth controls (buffer instead of compound added) were performed. All compound concentrations were tested in triplicate for several times. The following contamination germs were examined: Escherichia coli ATCC 8739, Pseudomonas aeruginosa ATCC 9027, Stapyhlococcus aureus ATCC®6538, Bacillus subtilis subsp. spizizenii ATCC®6633, Candida albicans ATCC®10231 and Aspergillus brasiliensis ATCC®16404. The strains were cultivated either in Mueller-Hinton II Bouillon (Escherichia coli, Pseudomonas aeruginosa, Staphylococcus aureus), in yeast peptone dextrose (Bacillus subtilis, Candida albicans) or in potato dextrose medium (Aspergillus brasiliensis). All culture media were buffered with 25 mM MES-buffer. For compound testing, the plates were incubated at 37° C. for Escherichia coli, Pseudomonas aeruginosa and Staphylococcus aureus, at 28° C. for Bacillus subtilis and Candida albicans, and at 25° C. for Aspergillus brasiliensis. Plates were evaluated after 24 h and 72 h, respectively. The minimal inhibitory concentration (MIC) is defined as the concentration where no microbial growth was observed after 24 h and 72 h incubation at the specified temperature.
(§2) Activity of perillic acid was comparably low against Gram-negative bacteria. It was thus tested whether the respective MIC could be reduced by combination of perillic acid with selected substances.
(§3) Experiments were performed as described for Example 1 above. A reduction factor was determined, expressing the reduction of the MIC of perillic acid that was achievable by combination with the combination partner. For example, a reduction factor of 2 means that the MIC of perillic acid was reduced by a factor of 2 by combination of perillic acid with the respective activity enhancing substance.

Escherichia coli = assay: as above; format: cell-based; conditions: test compound combined with perillic acid; experiments as in Example 1
Description: as §1, §2, §3

[1] = test system: Aspergillus brasiliensis ATCC®16404; assay: Minimal inhibition concentration (MIC), microdilution method; format: cell-based; conditions: potato dextrose medium, 25 mM MES-buffer, 25° C., no growth after 24 h and 72 h; for MIC: Aspergillus brasiliensis, ATCC16404, read-out: MIC [A to D] Aspergillus brasiliensis
Excerpt: (§4) The antimicrobial activity of different substances was examined and compared to perillic acid in vitro using the microdilution method adapted from DIN EN ISO 20776-1:2006. Besides perillic acid and its sodium salt, other organic acids like levulinic acid, p-anisic acid, benzoic acid and sorbic acid as well as alkane-1,2-diols such as hexane-1,2-diol, octane-1,2-diol and decane-1,2-diol were studied. Additionally, the commonly used preservatives 2-phenoxyethanol, 2-phenylethanol and benzyl alcohol were investigated.
as §1
(§5) MIC-values are given according to the following letter code.

[2] = test system: Candida albicans ATCC®10231; assay: as above; format: cell-based; conditions: for MIC: Candida albicans
Excerpt: as §4, §1, §5

[3] = test system: Pseudomonas aeruginosa ATCC 9027; assay: as above; format: cell-based; conditions: Mueller-Hinton II Bouillon, 25 mM MES-buffer, 37° C., no growth after 24 h and 72 h; for MIC: Pseudomonas aeruginosa, ATCC9027, read-out: MIC [A to D] Pseudomonas aeruginosa
Excerpt: as §4, §1, §5

[4] = test system: Bacillus subtilis subsp. spizizenii ATCC®6633; assay: as above; format: cell-based; conditions: for MIC: Bacillus subtilis
Excerpt: as §4, §1, §5

[5] = test system: Escherichia coli ATCC 8739; assay: Minimal inhibition concentration (MIC), microdilution method adapted from DIN EN ISO 20776-1:2006; format: cell-based; conditions: for MIC: Escherichia coli
Excerpt: as §4, §1, §5

[6] = test system: Stapyhlococcus aureus ATCC®6538; assay: Minimal inhibition concentration (MIC), microdilution method; format: cell-based, Staphylococcus aureus; conditions: Mueller-Hinton II Bouillon, 25 mM MES-buffer, 37° C., no growth after 24 h and 72 h
Excerpt: as §4, §1, §5

[7] = test system: Escherichia coli, Pseudomonas aeruginosa, Stapyhlococcus aureus, Candida albicans and Aspergillus brasiliensis; assay: Conservation efficacy test according to DIN EN ISO 11930 in cosmetic formulation, all five test strains; format: cell-based; conditions: cosmetic formulation (oil-water-emulsion), day 0 to day 28
Description: (§6) The composition of the formulations was in general as follows (ingredient amounts according to the FDA-code):
(§7) In order to confirm the activity against Gram-positive and Gram-negative bacteria, yeasts and moulds, conservation efficacy tests were performed according to DIN EN ISO 11930. The following classical contamination germs were examined: Escherichia coli (Ec in FIGS. 1 and 2) ATCC®8739, Pseudomonas aeruginosa (Pa in FIGS. 1 and 2) ATCC®9027, Stapyhlococcus aureus (Sa in FIGS. 1 and 2) ATCC®6538, Candida albicans (Ca in FIGS. 1 and 2) ATCC®10231 and Aspergillus brasiliensis (Ab in FIGS. 1 and 2) ATCC®16404. Media composition, incubation conditions and dilution procedures were all conducted according to the guidelines.
(§8) Data are presented as line graphs. […] The tested contamination germs are identified by different symbols as indicated in the diagrams with the following abbreviations: […]

[8] = test system: Candida albicans ATCC®10231; assay: Conservation efficacy test according to DIN EN ISO 11930 in cosmetic formulation; format: cell-based; conditions: cosmetic formulation (oil-water-emulsion), day 0 to day 28
Description: as §6, §7, §8

[9] = test system: Pseudomonas aeruginosa ATCC®9027; assay: as above; format: cell-based; conditions: cosmetic formulation (oil-water-emulsion), day 0 to day 28
Description: as §6, §7, §8

[10] = test system: Aspergillus brasiliensis ATCC®16404; assay: as above; format: cell-based; conditions: cosmetic formulation (oil-water-emulsion), day 0 to day 28
Description: as §6, §7, §8

[11] = test system: Escherichia coli ATCC®8739; assay: as above; format: cell-based; conditions: cosmetic formulation (oil-water-emulsion), day 0 to day 28
Description: as §6, §7, §8

[12] = test system: Stapyhlococcus aureus ATCC®6538; assay: as above; format: cell-based, Staphylococcus aureus; conditions: cosmetic formulation (oil-water-emulsion), day 0 to day 28
Description: as §6, §7, §8

[13] = yeast peptone dextrose, 25 mM MES-buffer, 28° C., no growth after 24 h and 72 h
[14] = ATCC6633, yeast peptone dextrose, 25 mM MES-buffer, 28° C., no growth after 24 h and 72 h, read-out: MIC [A to D] Bacillus subtilis
[15] = ATCC8739, Mueller-Hinton II Bouillon, 25 mM MES-buffer, 37° C., no growth after 24 h and 72 h, read-out: MIC [A to D] Escherichia coli

Structure (SMILES)	Reduction factor (reduction of the MIC of perillic acid by combination with the test compound) Pseudomonas aeruginosa (Pseudomonas aeruginosa)	Reduction factor (reduction of the MIC of perillic acid by combination with the test compound) Escherichia coli (Escherichia coli)	MIC [1] [µg/mL]	MIC [A to D] Candida albicans [2, 13]	MIC [3] [µg/mL]	MIC [4, 14] [µg/mL]	MIC [5, 15] [µg/mL]	criteria for an adequate conservation against C. albicans [8]	MIC [A to D] Staphylococcus aureus [6]	MIC [A to D] Pseudomonas aeruginosa [3]	further results
CC(=O)CCC(=O)O [Levulinic acid]	40	200	1000 to 5000 (≈ 8.61 to 43.1 mM)	A (MIC>1% (w/v))	1000 to 5000 (≈ 8.61 to 43.1 mM)	5000 to 10000 (≈ 43.1 to 86.1 mM)	1000 to 5000 (≈ 8.61 to 43.1 mM)	–	–	–	MIC ([6]; Staphylococcus aureus, ATCC6538, read-out: MIC [A to D] Staphylococcus aureus): 1000 to 5000 µg/mL (≈ 8.61 to 43.1 mM); criteria according to the guidelines for an adequate conservation (all five test strains) [7]: does not fulfill the criteria
CCCCCCC(O)CO (stereo not drawn) [Octane-1,2-diol]	2000	2000	1000 to 5000 (≈ 6.84 to 34.2 mM)	A (MIC>1% (w/v))	1000 to 5000 (≈ 6.84 to 34.2 mM)	1000 to 5000 (≈ 6.84 to 34.2 mM)	5000 to 10000 (≈ 34.2 to 68.4 mM)	does not fulfill the criteria	A (MIC>1% (w/v))	–	criteria for an adequate conservation against P. aeruginosa [9]: does not fulfill the criteria
C=C(C)[C@@H]1CC=C(C(=O)O)CC1 [Perillic acid]	–	–	–	–	–	–	–	fulfills the criteria	–	–	criteria for an adequate conservation against A. brasiliensis [10]: fulfills the criteria; criteria for an adequate conservation against E. coli [11]: fulfills the criteria; criteria for an adequate conservation against S. aureus [12]: fulfills the criteria
C/C=C/C=C/C(=O)[O-].[K+] [Potassium sorbate]	40	200	–	–	–	–	–	–	A (MIC>1% (w/v))	A (MIC>1% (w/v))	MIC [A to D] Aspergillus brasiliensis [1]: A (MIC>1% (w/v)); MIC ([2]; ATCC10231, read-out: MIC [A to D] Candida albicans): 5000 to 10000 µg/mL; MIC ([4]; ATCC6633, read-out: MIC [A to D] Bacillus subtilis): 1000 to 5000 µg/mL; MIC ([5]; ATCC8739, read-out: MIC [A to D] Escherichia coli): 5000 to 10000 µg/mL
O=C(O)c1ccccc1O [Salicylic acid]	80	40	1000 to 5000 (≈ 7.24 to 36.2 mM)	–	–	–	–	–	D (MIC<0.1% (w/v))	D (MIC<0.1% (w/v))	MIC ([2]; ATCC10231, yeast peptone dextrose, 25 mM MES-buffer, 28° C., no growth after 24 h and 72 h, read-out: MIC [A to D] Candida albicans): 1000 to 5000 µg/mL (≈ 7.24 to 36.2 mM); MIC [A to D] Bacillus subtilis [4, 13]: D (MIC<0.1% (w/v)); MIC [A to D] Escherichia coli ([5]; Mueller-Hinton II Bouillon, 25 mM MES-buffer, 37° C., no growth after 24 h and 72 h): D (MIC<0.1% (w/v))
